Assay [1] has as its system THP-1 cells. Put plainly: Cytokine ELISA in PMA/LPS-activated THP-1 cells. Conditions: PMA then LPS. The class given is cell-based, human. As for the experimental part: The ability of MMI-0100 ([…]; SEQ ID NO: 1) to inhibit the production of inflammatory cytokines (TNF-α and IL-1β) in vitro was examined using THP-1 cells. Briefly, THP-1 cells were activated with PMA for 24 hours, and treated subsequently with 10 μg of LPS. The amount of inflammatory cytokines (TNF-α and IL-1β, pg/ml) produced in the medium in the presence or absence of increasing concentrations (1 μM, 3 μM, 10 μM, and 30 μM) of MMI-0100 ([…]; SEQ ID NO: 1) was determined by cytokine specific enzyme-linked immunosorbent assay (ELISA). Analysis of inflammatory cytokines (TNF-α and IL-1β) was performed with cytokine-specific ELISA kit (PeproTech, Inc., Rocky Hill, N.J.). The cytokine-specific ELISA employs highly-purified anti-cytokine antibodies (capture antibodies) that are noncovalently adsorbed (“coated”) onto plastic microwell plates. After washings, the immobilized antibodies capture specifically soluble cytokine proteins present in samples applied to the plate. After washing away unbound material, the captured cytokine proteins are detected by biotin-conjugated anti-cytokine antibodies (detection antibodies) followed by an enzyme-labeled avidin or streptavidin reporter. Following addition of a chromogenic (color-developing) substrate-containing solution, the level of colored product generated by the bound, enzyme-linked, detection reagents can be measured spectrophotometrically using an ELISA-plate reader at an appropriate optical density.
In order to prepare plates for ELISA, capture antibodies (anti-TNF-α or anti-IL-1β antibodies) were diluted with PBS to a concentration of 1 μg/ml. 100 μl of each diluted antibody was added immediately to each well of the ELISA plate. […]
The standard was diluted from 2 ng/ml to zero in diluent, and 100 μl of the standard or sample was added immediately to each well in triplicate and incubated at room temperature for at least 2 hours. […] The level of colored product generated by the bound, enzyme-linked, detection reagents was measured spectrophotometrically using an ELISA-plate reader at an appropriate optical density.
In general terms: In an ELISA, binding on a coated surface is turned into a signal by an enzyme label.

Assay [2] concerns the target T1, MK2 (Homo sapiens, UniProt P49137).
T1 construct: purchased Millipore (IC50 Profiler Express / KinaseProfiler service)
Put plainly: MK2 radiometric kinase assay. The class given is biochemical. From the text:
A commercial radiometric assay service was used to test the specificity and potency of MMI-0100 ([…]; SEQ ID NO: 1) by measuring its half maximal inhibitory concentrations (IC50). This quantitative assay measures how much MK2 inhibitor (MMI-0100; […] (SEQ ID NO: 1)) is needed to inhibit 50% of a given biological process or component of a process (i.e., an enzyme, cell, or cell receptor). Specifically, in these assays, a positively charged substrate is phosphorylated with a radiolabeled phosphate group from an ATP if the kinase is not inhibited by an inhibitor peptide. The positively charged substrate then is attracted to a negatively charged filter membrane, quantified with a scintillation counter, and compared to a 100% activity control. ATP concentrations within 15 μM of the apparent Km for ATP were chosen since an ATP concentration near the Km may allow for the kinases to have the same relative amount of phosphorylation activity. […]
For the MK2 radiometric assay, 5-10 mU of MK2 was incubated with 50 mM Na b-glycerophosphate pH 7.5, 0.1 mM EGTA, 30 μM KKLNRTLSVA (SEQ ID NO: 34; a substrate peptide for MK2), 10 mM MgAcetate, and 10 μM of [y-^33P-ATP] in a final reaction volume of 25 μl. […] The washed P30 filtermat was dried and its radioactivity was measured by scintillation counter.
IC50 values for inhibitor peptides were determined using Millipore's IC50 Profiler Express service. […]

For assay [3], the target named is T2, MKK6 (Homo sapiens, UniProt P52564).
T2 construct: purchased Millipore (KinaseProfiler service)
Put plainly: MKK6 radiometric kinase assay. The assay is classed as biochemical. The conditions noted are these: peptide 100 μM. From the text:
A commercial radiometric assay service was used to test the specificity and potency of MMI-0100 ([…]; SEQ ID NO: 1) by measuring its half maximal inhibitory concentrations (IC50). This quantitative assay measures how much MK2 inhibitor (MMI-0100; […] (SEQ ID NO: 1)) is needed to inhibit 50% of a given biological process or component of a process (i.e., an enzyme, cell, or cell receptor). Specifically, in these assays, a positively charged substrate is phosphorylated with a radiolabeled phosphate group from an ATP if the kinase is not inhibited by an inhibitor peptide. The positively charged substrate then is attracted to a negatively charged filter membrane, quantified with a scintillation counter, and compared to a 100% activity control. ATP concentrations within 15 μM of the apparent Km for ATP were chosen since an ATP concentration near the Km may allow for the kinases to have the same relative amount of phosphorylation activity. The individual conditions for each radiometric assay are as follows.
The reaction was initiated by adding the MgATP. After incubation for 40 minutes at room temperature, 5 μl of the incubation mix was used to initiate the p38MAPK radiometric assay described above.
IC50 values for inhibitor peptides were determined using Millipore's IC50 Profiler Express service. The IC50 value was estimated from a 10-point curve of one-half log dilutions. […]

T1 sequence (P49137 whole entry, species assumed): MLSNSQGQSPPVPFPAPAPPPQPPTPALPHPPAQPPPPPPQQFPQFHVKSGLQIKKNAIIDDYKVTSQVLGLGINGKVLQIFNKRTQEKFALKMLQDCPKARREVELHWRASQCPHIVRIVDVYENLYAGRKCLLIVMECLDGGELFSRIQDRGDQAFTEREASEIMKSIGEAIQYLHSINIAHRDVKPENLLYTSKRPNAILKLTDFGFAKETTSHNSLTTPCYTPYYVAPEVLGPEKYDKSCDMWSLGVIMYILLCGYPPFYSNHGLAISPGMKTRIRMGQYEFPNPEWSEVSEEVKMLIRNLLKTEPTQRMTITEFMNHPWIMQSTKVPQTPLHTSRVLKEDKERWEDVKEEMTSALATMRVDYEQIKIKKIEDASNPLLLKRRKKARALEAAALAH
T2 sequence (P52564 whole entry, species assumed): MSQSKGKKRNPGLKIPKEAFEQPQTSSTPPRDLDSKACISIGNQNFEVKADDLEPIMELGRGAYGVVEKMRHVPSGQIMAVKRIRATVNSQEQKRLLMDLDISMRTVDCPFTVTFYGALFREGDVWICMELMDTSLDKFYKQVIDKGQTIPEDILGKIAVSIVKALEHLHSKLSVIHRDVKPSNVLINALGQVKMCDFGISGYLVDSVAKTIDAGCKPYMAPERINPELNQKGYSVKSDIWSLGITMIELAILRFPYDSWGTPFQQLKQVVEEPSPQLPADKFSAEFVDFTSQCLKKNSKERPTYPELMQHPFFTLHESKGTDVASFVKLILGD

For YARAAARQARAKALARQLGVAA [MMI-0100], the “IL-1β level in the medium” value in assay [1] (30 μM, PMA/LPS alone about 450 pg/ml) is on record as “about 100 pg/ml”. Moreover, the “TNF-α level in the medium” value in assay [1] (30 μM, PMA/LPS alone about 1000 pg/ml) is given as “about 300 pg/ml”. The “production of pro-inflammatory cytokines (TNF-α and IL-1β)” value in assay [1] (1, 3, 10 and 30 μM) was “inhibits the production of pro-inflammatory cytokines (i.e., TNF-α and IL-1β) in a dose-dependent manner”. Moreover, the “inhibition of MK2 activity” value in assay [2] (concentration used for specificity profiling (Table 2)) is greater than 95%. Further, in assay [2] (peptide 100 μM), the “Percent Activity, MK2” value is less than 5%. The “Percent Activity, MKK6” value in assay [3] came to 50%.

Source of the values: patent US20110288036A1, “Methods for Treating or Preventing Vascular Graft Failure” (priority 2010, published 2011).
